Laboratory results reported in paper PMC9274761, “Effects of Structurally Different HDAC Inhibitors against Trypanosoma cruzi, Leishmania, and Schistosoma mansoni” (ACS Infectious Diseases, 2022).
Several values for one entry are separate records, joined by “and”; a condition that tells them apart may be missing. Identical values can stand only once. Like-named read-outs stand apart in the source and are kept apart here.

What was measured:
[1] = system: T. cruzi amastigotes and trypomastigotes; assay: T. cruzi infection assay in L929 cells (beta-galactosidase Tulahuen strain); type: cell-based, Trypanosoma cruzi; conditions: for EC50, growth of T. cruzi amastigotes and trypomastigotes / EC50: mean ± SD; for selectivity index (SI), CC50/EC50: L929 CC50 / T. cruzi EC50; for EC50: read-out: EC50, growth of T. cruzi amastigotes and trypomastigotes
[2] = system: newly transformed schistosomula (NTS); assay: Phenotypic screening on newly transformed schistosomula (NTS); type: cell-based, Schistosoma mansoni; conditions: for IC50: Schistosoma mansoni, 72 h, read-out: IC50, viability of NTS
[3] = in vitro; conditions: mouse
[4] = system: S. mansoni adult worms; assay: Phenotypic screening on S. mansoni adult worms; type: cell-based, Schistosoma mansoni; conditions: 72 h
[5] = MTT viability assay in RPE cells; type: cell-based, human; conditions: human, retinal pigment epithelial (RPE) cells, read-out: percentage of RPE cell viability, 48 h
[6] = system: human retinal pigment epithelial (RPE) cells; assay: MTT viability assay in RPE cells; type: cell-based; conditions: Homo sapiens, RPE, 48 h, read-out: IC50 in RPE cells (cell viability)
[7] = system: L. amazonensis promastigotes; assay: Resazurin reduction assay, L. amazonensis promastigotes; type: cell-based; conditions: Leishmania amazonensis, read-out: percentage of inhibition, L. amazonensis promastigotes
[8] = system: L. donovani promastigotes; assay: Resazurin reduction assay, L. donovani promastigotes; type: cell-based; conditions: Leishmania donovani, read-out: percentage of inhibition, L. donovani promastigotes
[9] = system: L. donovani axenic amastigotes; assay: Resazurin reduction assay, L. donovani axenic amastigotes; type: cell-based; conditions: Leishmania donovani, read-out: percentage of inhibition, L. donovani axenic amastigotes
[10] = system: L. amazonensis amastigotes in primary mouse macrophages; conditions: 10 μM, 3 days, toxic = toxic for macrophages
[11] = 10 μM, infected L929 cells, 96 h, toxic = L929 death
[12] = 20 μM, infected L929 cells, 96 h, toxic = L929 death
[13] = 40 μM, infected L929 cells, 96 h, toxic = L929 death
[14] = 80 μM, infected L929 cells, 96 h, toxic = L929 death
[15] = 160 μM, infected L929 cells, 96 h, toxic = L929 death
[16] = Trypanosoma cruzi, infected L929 cells, 96 h, read-out: percentage of T. cruzi growth inhibition
[17] = noninfected L929 fibroblast cells
[18] = Trypanosoma cruzi, 2.5 μM, infected L929 cells, 96 h, toxic = L929 death, read-out: percentage of T. cruzi growth inhibition
[19] = Trypanosoma cruzi, 5 μM, infected L929 cells, 96 h, toxic = L929 death, read-out: percentage of T. cruzi growth inhibition
[20] = Trypanosoma cruzi, L929, 96 h, infected L929 cells, 96 h
[21] = Trypanosoma cruzi, 10 μM, infected L929 cells, 96 h, toxic = L929 death, read-out: percentage of T. cruzi growth inhibition
[22] = Trypanosoma cruzi, 20 μM, infected L929 cells, 96 h, toxic = L929 death, read-out: percentage of T. cruzi growth inhibition

Compound	percentage of T. cruzi growth inhibition [1, 13]	percentage of T. cruzi growth inhibition [1, 14]	percentage of T. cruzi growth inhibition [1, 15]	inhibition at 1.25 µM [1, 16] [%]	EC50, growth of T. cruzi amastigotes and trypomastigotes ([1]; infected L929 cells, 96 h)	percentage of NTS activity, 72 h ([2]; 10 μM)	percentage of NTS activity, 72 h ([2]; 20 μM)	IC50 [2] [µM]	CC50 at 96 h [3, 17] [µM]	percentage of NTS activity, 72 h ([2]; 1 μM)	percentage of activity (death induction), S. mansoni adult worms ([4]; 20 μM) [%]	viability at 48 h, 1 µM [5] [%]	viability at 48 h, 5 µM [5] [%]	viability at 48 h, 10 µM [5] [%]	viability at 48 h, 25 µM [5] [%]	viability at 48 h, 50 µM [5] [%]	IC50 [6] [µM]	inhibition at 2.5 µM [1, 18] [%]	inhibition at 5 µM [1, 19] [%]	inhibition at 20 µM [9] [%]	further results
O=C(/C=C/c1ccc(NC(=O)Cc2cccc3ccccc23)cn1)NO [Compound 5]	toxic	toxic	toxic	0	inactive	31.0 ± 0.0%	30.8 ± 0.0%	> 20	1.25												percentage of T. cruzi growth inhibition ([1]; 2.5 μM, infected L929 cells, 96 h, toxic = L929 death): toxic; percentage of T. cruzi growth inhibition ([1]; 5 μM, infected L929 cells, 96 h, toxic = L929 death): toxic; percentage of T. cruzi growth inhibition [1, 11]: toxic; percentage of T. cruzi growth inhibition [1, 12]: toxic
Cn1c(/C=C/C(=O)c2ccc(NC(=O)OC(C)(C)C)cc2)ccc1C(=O)NO [Compound 17]						100.0 ± 0.0%	100.0 ± 0.0%	1.23		28.0 ± 0.0%	58.6 ± 0	74.2 ± 5.2	91.8 ± 11.5	102 ± 15.2	91.9 ± 4.5	77.4 ± 2.3	> 50				
O=C(/C=C/c1ccc(Cc2nnc(Cc3cccc4ccccc34)o2)cc1)NO [Compound 7]	toxic	toxic	toxic	0	inactive	38.0 ± 1.2%	39.4 ± 1.0%	> 20	5									0	21		percentage of T. cruzi growth inhibition [1, 11]: toxic; percentage of T. cruzi growth inhibition [1, 12]: toxic
CC(C)(C)OC(=O)Nc1cccc(C(=O)/C=C/c2ccc(/C=C/C(=O)NO)cc2)c1 [Compound 4]	toxic	toxic	toxic	0		100% and 100.0 ± 0.0%	100% and 100.0 ± 0.0%	1.29	5	24% and 24.0 ± 0.0%	63.8 ± 0	75.7 ± 11.4	71.5 ± 12.8	50.2 ± 8.4	40.4 ± 9.8	45.2 ± 6.6	15.6	0	85	93.6 ± 0.4	percentage of T. cruzi growth inhibition [1, 11]: toxic; percentage of T. cruzi growth inhibition [1, 12]: toxic; selectivity index (SI), CC50/EC50 [1]: 1.25; EC50 [1, 20]: 4 ± 0.07 µM; inhibition at 0.8 µM [7]: 10.5 ± 2.9%; inhibition at 4 µM [7]: 95.7 ± 0.3%; inhibition at 20 µM [7]: 97.9 ± 0.4%; inhibition at 20 µM [8]: 95.9 ± 0.3%; inhibition at 0.8 µM [9]: 39.5 ± 2%; inhibition at 4 µM [9]: 61.4 ± 4.3%; percentage of activity (death induction), S. mansoni adult worms ([4]; 10 μM): 45.1 ± 3.9%; HCA outcome against intramacrophagic L. amazonensis amastigotes [10]: toxic
Nc1ccccc1NC(=O)c1ccc(CNC(=O)OCc2cccnc2)cc1 [Compound 9, entinostat, reference compound]	toxic	toxic	toxic	0	inactive	40.0 ± 2.0%	42.3 ± 0.0%	> 20										0	0	28.9 ± 0.9	inhibition at 10 µM [1, 21]: 0%; inhibition at 20 µM [1, 22]: 0%; inhibition at 0.8 µM [9]: 6.7 ± 3.8%; inhibition at 4 µM [9]: 2.9 ± 10.1%; HCA outcome against intramacrophagic L. amazonensis amastigotes [10]: toxic; CC50 at 96 h [3]: 20 µM
O=C(CCCCSc1nc(-c2ccc(-c3ccccc3)cc2)cc(=O)[nH]1)NO [Compound 1]	toxic	toxic	toxic ^e	0	inactive	29.3 ± 0.9%	43.3 ± 1.9%	> 20	20									0	0	29 ± 14	inhibition at 10 µM [1, 21]: 0%; inhibition at 20 µM [1, 22]: 0%; inhibition at 20 µM [7]: 2.1 ± 3.2%; HCA outcome against intramacrophagic L. amazonensis amastigotes [10]: toxic
CC(C)(C)OC(=O)Nc1ccc(C(=O)/C=C/c2ccc(/C=C/C(=O)NO)cc2)cc1 [Compound 20]						100.0 ± 0.0%	100.0 ± 0.0%	1.32		22.0 ± 1.0%	40.5 ± 2.6	80 ± 11	71.6 ± 9.2	63 ± 6	59.5 ± 2.4	45.6 ± 4.8	27.2				percentage of activity (death induction), S. mansoni adult worms ([4]; 10 μM): 31.3 ± 2.0%
CC(C)(C)OC(=O)Nc1cccc(C(=O)/C=C/c2ccc(C(=O)NO)cc2)c1 [Compound 19]						100.0 ± 0.0%	100.0 ± 0.0%	1.29		24.0 ± 0.0%	58.6 ± 0	75.6 ± 16.9	80.5 ± 13.7	82 ± 12.3	68.6 ± 1.3	52.8 ± 16.1	48.7				
O=C(Cn1ccnc1[N+](=O)[O-])NCc1ccccc1 [BZN, benznidazole, reference compound]																					selectivity index (SI), CC50/EC50 [1]: 625; EC50 [1, 20]: 3.8 µM
CC1=C(/C=C/C(C)=C/C=C/C(C)=C/C(=O)Nc2ccccc2N)C(C)(C)CCC1 [Compound 8]			toxic	0		37.9 ± 0.0%	70% and 71.1 ± 1.0%	12.8	80		52.8 ± 2.8	95.3 ± 28.7	115 ± 9.4	90.4 ± 16.7	98.8 ± 4.6	72 ± 5.8	> 50	0	7	41.8 ± 1.4	selectivity index (SI), CC50/EC50 [1]: 5.7; EC50 [1, 20]: 13.9 µM; inhibition at 10 µM [1, 21]: 32%; inhibition at 20 µM [1, 22]: 78%; inhibition at 40 µM ([1]; Trypanosoma cruzi, 40 μM, infected L929 cells, 96 h, toxic = L929 death, read-out: percentage of T. cruzi growth inhibition): 76%; inhibition at 80 µM ([1]; Trypanosoma cruzi, 80 μM, infected L929 cells, 96 h, toxic = L929 death, read-out: percentage of T. cruzi growth inhibition): 88%; EC50 ([1]; infected L929 cells, 96 h): 14 ± 3.4 µM; inhibition at 0.8 µM [7]: 8.1 ± 2.1%; inhibition at 4 µM [7]: 8.3 ± 3.4%; inhibition at 0.8 µM ([8]; 0.8 μM): 2.3 ± 1.4%; inhibition at 20 µM [8]: 6.3 ± 1.7%; inhibition at 0.8 µM [9]: 4.3 ± 1.1%; inhibition at 4 µM [9]: 5.8 ± 2.5%; percentage of activity (death induction), S. mansoni adult worms ([4]; 10 μM): 36.1 ± 2.8%
CC(C)(C)OC(=O)Nc1ccc(C(=O)/C=C/c2ccc(C(=O)NO)cc2)cc1 [Compound 18]						100.0 ± 0.0%	100.0 ± 0.0%	1.26		26.0 ± 1.0%	56.0 ± 7.8	67.9 ± 4.2	73.8 ± 3.3	71 ± 7.8	50.3 ± 7.4	43.1 ± 0.1	24.7				percentage of activity (death induction), S. mansoni adult worms ([4]; 10 μM): 43.1 ± 2.0%
